Measured values from patent US20240368232A1, “ANTIVIRAL LARAZOTIDE DERIVATIVES” (priority 2021, published 2024).
Like-named read-outs stand apart in the source and are kept apart here. Square brackets hold non-standard residues; d marks the D form. Peptide text beside a SMILES is read from it.

Key:
[1] = tested on: SARS-COV-2 SA (RG) strain; experiment: microbe, parasite or virus in culture; conditions: Severe acute respiratory syndrome coronavirus 2, Vero, read-out: Antiviral activity EC50 SA (RG) strain Vero cells
[2] = tested on: SARS-COV-2 SA (RG) strain

| SMILES | EC50 [1] | EC50 [2] |
| --- | --- | --- |
| CCC(CC)COC(=O)[C@H](C)N[P@](=O)(OC[C@H]1O[C@@](C#N)(c2ccc3c(N)ncnn23)[C@H](O)[C@@H]1O)Oc1ccccc1 [Remdesivir] | 840 nM |  |
| CC(=O)NCC(=O)N[C@H](Cc1ccccc1)C(=O)N[C@H](C=O)Cc1c[nH]cn1 [TRIP 5] (Ac-Gly-[dF]-His-aldehyde) |  | > 100000 nM |
